In the assay the target is hQC (Homo sapiens, UniProt Q16769). The assay is described as follows: Inhibitor assay for glutaminyl cyclase activity (fluorometric, H-Gln-βNA / H-Gln-AMC). It is filed as biochemical. In outline:
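Coupled fluorometric assay at 30 °C with pyroglutamyl aminopeptidase, in Tris/HCl pH 8.0 with EDTA, substrate H-Gln-βNA (0.2 mM; ex/em 320/410 nm) or H-Gln-AMC (ex/em 380/460 nm), initiated by QC. Screening: 4 mM inhibitor, substrate at 1 KM; Ki from progress curves fitted to competitive inhibition.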

From US8278345B2, “Inhibitors of glutaminyl cyclase” (Probiodrug AG, priority 2006, dated 2012) come the findings set out here.

Like-named read-outs stand apart in the source and are kept apart here.

hQC, sequence (Q16769 29-361): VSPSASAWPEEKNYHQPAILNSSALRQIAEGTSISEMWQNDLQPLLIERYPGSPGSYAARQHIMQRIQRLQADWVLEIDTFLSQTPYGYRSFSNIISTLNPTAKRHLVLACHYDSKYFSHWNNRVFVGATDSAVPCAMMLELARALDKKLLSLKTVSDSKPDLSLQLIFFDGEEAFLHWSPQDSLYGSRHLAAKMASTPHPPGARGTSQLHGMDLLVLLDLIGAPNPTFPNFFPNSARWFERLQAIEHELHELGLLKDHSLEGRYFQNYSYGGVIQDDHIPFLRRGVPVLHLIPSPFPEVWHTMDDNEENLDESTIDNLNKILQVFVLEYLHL

`CC1=C(O)C(=O)N(CCCn2ccnc2)C1C1=CCCCC1` (stereo not shown) [Compound 36, 5-Cyclohex-1-enyl-3-hydroxy-1-(3-imidazol-1-yl-propyl)-4-methyl-1,5-dihydro-pyrrol-2-one]: the IC50 (commonly the point on the concentration scale where inhibition reaches its midpoint) (read-out: IC50) was 2200 nM.

Consider `COc1ccc(C2C(C)=C(O)C(=O)N2CCCn2ccnc2)cc1` (stereo not shown) [Compound 27, 3-Hydroxy-1-(3-imidazol-1-yl-propyl)-5-(4-methoxy-phenyl)-4-methyl-1,5-dihydro-pyrrol-2-one], for which the IC50 (read-out: IC50) was determined as 4000 nM.

On to `CCC/C=C/C1C(CCCCC)=C(O)C(=O)N1CCCn1ccnc1` (stereo not shown) [Compound 185, 3-Hydroxy-1-(3-imidazol-1-yl-propyl)-5-(pent-1-enyl)-4-pentyl-1,5-dihydro-pyrrol-2-one], for which the IC50 (read-out: IC50) stood at 1300 nM.

In the case of `O=C(C1=C(O)C(=O)N(c2ccc3[nH]cnc3c2)C1c1cccc(F)c1)C1CC1` (stereo not shown) [Compound 370, 1-(1H-Benzoimidazol-5-yl)-4-cyclopropanecarbonyl-5-(3-fluoro-phenyl)-3-hydroxy-1,5-dihydro-pyrrol-2-one], the concentration for half-maximal inhibition (IC50) (read-out: IC50) amounted to 7690 nM.

On to `Cc1cc(C2C(C(C)C)=C(O)C(=O)N2c2ccc3[nH]cnc3c2)oc1C` (stereo not shown) [Compound 388, 1-(1H-Benzoimidazol-5-yl)-5-(4,5-dimethyl-furan-2-yl)-3-hydroxy-4-isopropyl-1,5-dihydro-pyrrol-2-one], for which the IC50 (read-out: IC50) came out at 3190 nM.

`CC1=C(O)C(=O)N(c2ccc3nc[nH]c3c2)C1c1cccc(F)c1F` (stereo not shown) [Compound 467, 1-(1H-benzo[d]imidazol-6-yl)-5-(2,3-difluorophenyl)-3-hydroxy-4-methyl-1H-pyrrol-2(5H)-one]: under “compound from preparative synthesis, purified”, the Ki – broadly, a dissociation constant, usually derived from enzyme kinetics or from competition with a known ligand – was determined as 11.6 nM. For the same compound, the IC50 (read-out: IC50) is 52.6 nM.

With `O=C1C(O)=C(c2c[nH]c3ccccc23)C(C2CC2)N1CCCn1ccnc1` (stereo not shown) [Compound 139, 5-Cyclopropyl-3-hydroxy-1-(3-imidazol-1-yl-propyl)-4-(1H-indol-3-yl)-1,5-dihydro-pyrrol-2-one], the half-maximal inhibitory concentration (IC50) (read-out: IC50) was 400 nM.

With `CCCCC1C(c2c[nH]c3ccccc23)=C(O)C(=O)N1CCCn1ccnc1` (stereo not shown) [Compound 141, 5-Butyl-3-hydroxy-1-(3-imidazol-1-yl-propyl)-4-(1H-indol-3-yl)-1,5-dihydro-pyrrol-2-one], the IC50 (read-out: IC50) worked out at 400 nM.

As for `CCCCCC1=C(O)C(=O)N(CCCn2ccnc2)C1c1ccc(C)o1` (stereo not shown) [Compound 191, 3-Hydroxy-1-(3-imidazol-1-yl-propyl)-5-(5-methyl-furan-2-yl)-4-pentyl-1,5-dihydro-pyrrol-2-one], the IC50 (compound from preparative synthesis, purified, read-out: IC50 hQC) stood at 1750 nM and the IC50 (read-out: IC50) was 40 nM.

With `O=C(C1=C(O)C(=O)N(c2ccc3[nH]cnc3c2)C1C1CCOC1)C1CC1` (stereo not shown) [Compound 317, 1-(1H-Benzoimidazol-5-yl)-4-cyclopropanecarbonyl-3-hydroxy-5-(tetrahydro-furan-3-yl)-1,5-dihydro-pyrrol-2-one], the IC50 (read-out: IC50) came to 7690 nM.

On to `O=C1C(O)=C(c2ccccc2)C(c2cc(Cl)cc(Cl)c2O)N1CCCn1ccnc1` (stereo not shown) [Compound 76, 5-(3,5-Dichloro-2-hydroxy-phenyl)-3-hydroxy-1-(3-imidazol-1-yl-propyl)-4-phenyl-1,5-dihydro-pyrrol-2-one], for which, where the note is “read-out: IC50”, the IC50 stood at 40 nM.

On to `CCCC(=O)C1=C(O)C(=O)N(c2ccc3[nH]cnc3c2)C1c1ccc(CO)o1` (stereo not shown) [Compound 432, 1-(1H-Benzoimidazol-5-yl)-4-butyryl-3-hydroxy-5-(5-hydroxymethyl-furan-2-yl)-1,5-dihydro-pyrrol-2-one], for which the IC50 (read-out: IC50) turned out to be 2650 nM.

Regarding `CCCCCC1=C(O)C(=O)N(CCCn2ccnc2)C1C(C)CC` (stereo not shown) [Compound 186, 5-sec-Butyl-3-hydroxy-1-(3-imidazol-1-yl-propyl)-4-pentyl-1,5-dihydro-pyrrol-2-one], where the note is “read-out: IC50”, the IC50 was determined as 400 nM.

With `CC1=C(O)C(=O)N(c2ccc3[nH]cnc3c2)C1c1cc(Cl)ccc1O` (stereo not shown) [Compound 337, 1-(1H-Benzoimidazol-5-yl)-5-(5-chloro-2-hydroxy-phenyl)-3-hydroxy-4-methyl-1,5-dihydro-pyrrol-2-one], the IC50 (read-out: IC50) is 5800 nM.
